Here are results for one compound from patent US20070003987A1, “Screening method for substance binding to merozoite surface protein-1/42” (priority 2003, published 2007).

One test deals with MSP142 (Plasmodium falciparum, UniProt Q8I0U8). In words: titration of fluorescent analogues against MSP142. It is filed as binding. Here is the method: Analogues 258, 261, 264 and 266 were titrated against (a) PBS buffer only, (b) 0.1 mg/ml bovine serum albumin in PBS or (c) 0.1 mg/ml MSP142 in PBS. Fluorescence observed was compared to naphthalenetrisulphate (non-specific reagent) and suramin.

For another test, the system named is P. falciparum (FCB-1). Briefly: growth inhibition assay by [3H] hypoxanthine uptake. It counts as cell-based, Plasmodium falciparum. As to conditions: Plasmodium falciparum, Erythrocyte, read-out: IC50, inhibition of erythrocyte invasion ([3H] hypoxanthine incorporation, FIG. 2). Here is the method:
Asexual blood stages of P. falciparum (FCB-1) were maintained at 37° C. in RPMI 1640/Albumax medium (Gibco) supplemented with 2 mM L-glutamine as previously described (Blackman, 1994 Methods Cell Biol. 45, 213-220). Cultures were gassed with 7% CO2, 5% O2 and 88% N2 and maintained by routine passage in fresh human erythrocytes. Parasites were synchronised by Percoll and sorbitol treatment (Holder & Freeman, 1982 J. Exp. Med. 156, 1528-1538); schizonts were purified by centrifugation over Percoll and then returned to culture in the presence of fresh erythrocytes. After 4 h, during which time released merozoites invaded erythrocytes, the cells were treated with 5% sorbitol for 10 min to lyse the residual schizonts, before returning the parasites to culture.
Suramin and NTS were also assayed for P. falciparum growth inhibition using [^3H] hypoxanthine uptake (generally as described by Desjardins et al, 1979 Antimicrob. Agents Chemother. 16, 710-718). Serial dilutions of the compounds in 96-well plates were incubated at 37° C. with purified mature schizonts at a final parasitaemia of ^˜0.5% and a haematrocrit of ^˜2% in triplicate cultures. […] The filters were wetted with scintillation cocktail and the bound radioactivity counted in a β-counter. […] The amount of radioactivity in each sample was expressed as a percentage of activity in the control wells containing no compound. […]

The next test has as its target T1, P. vivax MSP133 (Plasmodium vivax, UniProt Q02569, A1444G/T1362K/T1451N).
T1 sequence (Q02569 1325-1618 T1362K/A1444G/T1451N): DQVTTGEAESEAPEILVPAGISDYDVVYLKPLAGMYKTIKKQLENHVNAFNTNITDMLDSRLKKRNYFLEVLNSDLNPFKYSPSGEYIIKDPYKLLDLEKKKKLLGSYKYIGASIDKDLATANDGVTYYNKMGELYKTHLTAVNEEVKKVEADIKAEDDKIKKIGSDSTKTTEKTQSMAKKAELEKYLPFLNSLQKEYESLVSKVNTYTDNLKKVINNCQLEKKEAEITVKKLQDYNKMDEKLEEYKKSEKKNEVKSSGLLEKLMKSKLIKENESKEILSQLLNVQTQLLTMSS
In words: isothermal titration calorimetry. It is filed as binding. How it is done: P. vivax MSP133 was expressed using the P. vivax MSP142 clone, above, as a template for PCR, followed by ligation of the product into vector pET30Xa/LIC. The sequence runs from Asp 1325 to Ser 1618 (Accession number A39401) following the N-terminal purification tag. The vector was used to transform BL21(DE3)pLysS cells. For expression, a culture of the transformed cells was induced at an OD600 of 0.6-0.8 at 37° C. with 1 mM IPTG for 3 h. The cells were harvested by centrifugation and the cell pellet lysed using the Bugbuster protein extraction reagent (Novagen). The cell lysate was cleared by centrifugation and the supernatant loaded directly onto a Ni-NTA column. The column was washed with 10 volumes of 50 mM NaH2PO4, 300 mM NaCl, 10 mM imidazole, pH 8.0, then with 6 column volumes of the same buffer containing 30 mM imidazole, and finally eluted with 3 column volumes of the buffer with 250 mM imidazole. The eluted protein was then loaded directly onto a Superdex 200 (26/600) column (Amersham) equilibrated in 20 mM Tris-HCl, 250 mM NaCl, pH 8.0 and purified by gel filtration. The fractions containing MSP-133 were pooled and dialysed extensively with PBS.
In addition to the fluorimetry, isothermal titration calorimetry (ITC) was performed using a Microcal omega VP-ITC (MicroCal Inc., Northampton, Mass.). The proteins were dialyzed extensively against the ITC buffer (phosphate buffered saline, pH 7.4). All experiments were performed at 25° C. The cell, 1.425 ml, contained 30 μM MSP142 or MSP133 and these were titrated by injection of a total of 290 μl of 600 μM suramin. The heat of dilution of suramin into buffer was determined in control experiments. The data were fitted by least-squares methods using the evaluation software, Microcal Origin version 5.0 provided by the manufacturer. Each experiment was performed twice.

As for `Cc1ccc(C(=O)Nc2ccc(S(=O)(=O)O)c3cc(S(=O)(=O)O)cc(S(=O)(=O)O)c23)cc1NC(=O)c1cccc(NC(=O)Nc2cccc(C(=O)Nc3cc(C(=O)Nc4ccc(S(=O)(=O)O)c5cc(S(=O)(=O)O)cc(S(=O)(=O)O)c45)ccc3C)c2)c1` [suramin], the 50% effective concentration (EC50) at MSP142 was ~2 µM. The “fluorescence in the presence of MSP142” value at MSP142 (0.1 mg/ml MSP142 in PBS, 0.01-200 μM) was “became fluorescent in the presence of MSP142 specifically”. Also, the IC50 in the test with P. falciparum (FCB-1) turned out to be 60 µM. At P. vivax MSP133, the dissociation constant (Kd) stood at 1.5 ± 0.5 µM. Further, on P. vivax MSP133 (ITC), the “binding to MSP133 weaker than to MSP142” value is 5 fold. Also, the AH value on P. vivax MSP133 (ITC, 25° C.) stood at 12 ± 1 kcal/mol.
